Measured values taken from article PMC11483813, “Bombesin-Targeted Delivery of β-Carboline-Based Ir(III) and Ru(II) Photosensitizers for a Selective Photodynamic Therapy of Prostate Cancer” (Inorganic Chemistry, 2024).
Where “and” joins values, the source holds several entries; their conditions need not be identical. Equal entries are not always repeated. Where two headings read alike, the source gives them in different places. Residues, ends and D or L forms follow the SMILES beside them. *: point of attachment. X1 = Cn1c2ccccc2c2ccnc(-c3ccc(/C=C/C(=O)*)cn3)c21

Tests used:
Assay type in all cases: cell-based, human
[1] = system: PC-3 cells; experiment: Mitochondrial membrane potential, JC-10 flow cytometry; conditions: IC50,light 4 h, blue light 1 h, control 63.0 ± 10.6%
Experimental: Figure 12 Effect on mitochondria function. PC-3 cells were incubated with the indicated compounds at the corresponding IC50,light for 4 h at 37 °C and then exposed to blue light for 1 h. Cells incubated with the medium alone served as the negative control. (A) Confocal microscopy images of the cells. Nuclei were stained blue with Hoechst (λex: 350 nm; λem: 461 nm), and mitochondria were labeled with MitoTracker Red CMXRos (λex: 579 nm; λem: 599 nm). Insets show a 3× magnification of the cells. Scale bars represent 50 μm in 1× images and 20 μm in 3× images. (B) Flow cytometry analysis of the effect of the complexes on mitochondrial membrane potential. […] A decrease in the percentage of cells emitting orange fluorescence indicates a loss of MMP. p < 0.05 and ** p < 0.01 compared to control cells.
Flow cytometry analysis using the mitochondrial specific dye JC-10 confirmed this effect. The fluorescence of JC-10 undergoes a reversible change from green to orange as MMP increases, due to the formation of JC-10 aggregates within polarized mitochondria. This property allows for the simultaneous detection of healthy and depolarized mitochondria. In control cells, orange fluorescence emission corresponding to healthy mitochondria was detected in 63.0 ± 10.6% of cells (Figure 12B). […] Furthermore, the complexes’ ability to photocatalytically oxidize NADH, a primary electron donor for the mitochondrial electron transport chain, may contribute to the mitochondrial damage.
Flow cytometry assessment of the mitochondrial membrane depolarization: PC-3 cells were seeded on 12-well plates at a density of 100000 cells per well. 24 h later, cells were treated with the compounds as described above. Cells were subsequently harvested using trypsinization and incubated with JC-10 dye (Deltaclon) according to the manufacturer’s protocol. A Novocyte flow cytometer was employed to analyze the fluorescence emission of JC-10 in 10000 cells. Fluorescence was detected at 590 nm (FL2) to identify the percentage of cells with healthy mitochondria and at 529 nm (FL1) to determine the percentage of cells with depolarized mitochondria. Each compound was evaluated in three independent experiments, and the mean and standard deviation of the results were represented.

[2] = system: A549 lung cancer cells; conditions: for PI (IC50,dark/IC50,light) A549: blue light 460 nm
Experimental: (§1) The effect of Ir-H, Ir-Me, Ru-H, and Ru-Me on cell viability was evaluated in the A549 lung cancer and PC-3 prostate cancer cell lines by MTT assays. PC-3 cells were specifically chosen due to their high expression levels of GRPR on their surface, allowing for further evaluation of the activity of the BN3-derived metallopeptides Ir-BN and Ru-BN.[38],[51] In contrast, A549 cells express low levels of GRPR.[52] MRC-5 fibroblasts were used as a nonmalignant cell model.[53]Table 3 reports the half maximal inhibitory concentration (IC50) values obtained after treating the cells either under dark conditions or upon exposure to blue light at a dose of 24.1 J cm^–2. The photocytotoxicity index (PI), defined as the IC50,dark/IC50,light, is provided for each compound.
(§2) Stock solutions of the complexes and metallopeptides were initially prepared at a concentration of 5 mM in DMSO and then diluted in sterile distilled water to achieve a final concentration of 1 mM, with a resulting DMSO concentration of 20% v/v. Cells were seeded into 96-well plates at a density of 2500 cells/well for A549, 3500 cells/well for PC-3, and 5500 cells/well for MRC-5. Following 24 h of incubation for attachment, cells were treated in triplicate with freshly prepared working solutions of the compounds in the culture medium at concentrations ranging from 0.001 to 100 μM. The maximum DMSO concentration in the working solutions was 2% (v/v). The working concentrations for each compound were adjusted based on their cytotoxicity. Following a 4 h incubation period to allow internalization of the compounds into the cells, the plates were kept in dark conditions or exposed to blue (460 nm) or red (655 nm) light for 1 h using an LED system (LuxLight), providing a total dose of 24.1 J cm^–2. All plates were incubated in the dark for an additional 43 h. Cells were then washed with phosphate-buffered saline (PBS), and 100 μL of fresh culture medium containing 10% of 3-[4,5-dimethylthiazol-2-yl]-2,5 diphenyl tetrazolium bromide (MTT) solution (0.5 mg/mL) (Sigma- Aldrich) was added to each well. After a 2 h incubation period, the formazan crystals were dissolved in DMSO, and the absorbance was measured at 570 nm using a Multiscan Plate Reader (Synergy 4, Biotek, Winooski, USA). The concentration causing a 50% reduction in cell viability (IC50) was determined for each compound with the Gen5 software (BioTek). At least three independent experiments were conducted for each compound.

[3] = system: MRC-5 fibroblasts; conditions: for PI (IC50,dark/IC50,light) MRC-5: blue light 460 nm
Experimental: as §1, §2

[4] = system: PC-3 prostate cancer cells; conditions: for PI (IC50,dark/IC50,light) PC-3: blue light 460 nm
Experimental: as §1, §2

[5] = system: PC-3 cells; experiment: Superoxide anion generation (ROS-ID Superoxide Detection Kit); conditions: IC50,light 4 h, blue light 1 h
Experimental: The photocytotoxic effects of the complexes and metallopeptides were further elucidated by evaluating their ability to photogenerate ROS at the cellular level. PC-3 cells were treated with the compounds at the respective IC50,light and irradiated with blue light. Subsequently, ROS generation was measured using the 2′,7′-dichlorodihydrofluorescein diacetate (H2DCFDA) probe, which diffuses into cells and is oxidized by ROS to produce a green fluorescent signal. […] Nevertheless, to ascertain the potential contributions of other ROS to the photocytotoxic activity, the capacity of the compounds to undergo type I PDT processes, resulting in the production of superoxide anions (O2^•–), was examined using a specific fluorescent probe that emits an orange signal upon interaction with this radical. Ir-H, Ir-Me, and Ir-BN induced the most significant increase in O2^•– levels, with fold changes of 2.4, 3.5, and 3.4, respectively, compared to control cells. […] These findings highlight the diverse mechanisms of ROS generation employed by these compounds, in particular the Ir complexes, which may contribute to their overall photocytotoxic efficacy.
Figure 9 Intracellular ROS generation. PC-3 cells were treated with the indicated complexes and metallopeptides at their respective IC50,light for 4 h, followed by blue light irradiation for 1 h (460 nm, 24.1 J cm^–2). The elevation of general ROS (A) and superoxide anion (B) levels was determined with specific probes by flow cytometry. Bars represent the mean fold increase (±standard deviation) relative to control untreated cells from three independent experiments. * p < 0.05; ** p < 0.01, *** p < 0.001 compared to control cells.
A similar protocol was followed to evaluate superoxide production using the ROS-ID Superoxide Detection Kit (Enzo Life Sciences) according to the manufacturer’s instructions.

[6] = A549, 4 h incubation, blue light 1 h (460 nm, 24.1 J cm^–2), MTT after 48 h, read-out: IC50 A549 Light
[7] = A549, 4 h incubation, kept in the dark 1 h, MTT after 48 h, read-out: IC50 A549 Dark
[8] = MRC-5, 4 h incubation, blue light 1 h (460 nm, 24.1 J cm^–2), MTT after 48 h, read-out: IC50 MRC-5 Light
[9] = MRC-5, 4 h incubation, kept in the dark 1 h, MTT after 48 h, read-out: IC50 MRC-5 Dark
[10] = PC-3, 4 h incubation, blue light 1 h (460 nm, 24.1 J cm^–2), MTT after 48 h, read-out: IC50 PC-3 Light
[11] = PC-3, 4 h incubation, kept in the dark 1 h, MTT after 48 h, read-out: IC50 PC-3 Dark

Structure (SMILES) | population of cells emitting JC-10 orange fluorescence [1] | PI (IC50,dark/IC50,light) A549 ([2]; A549) | PI (IC50,dark/IC50,light) MRC-5 ([3]; MRC-5) | PI (IC50,dark/IC50,light) PC-3 ([4]; PC-3) | O2•– levels, fold change versus control cells [5] | IC50 [2, 6] | IC50 [2, 7] | IC50 [3, 8] | IC50 [3, 9] | IC50 [4, 10] | IC50 [4, 11] | other results
CC(C)C[C@H](NC(=O)[C@H](CC(C)C)NC(=O)[C@H](Cc1c[nH]cn1)NC(=O)CNC(=O)[C@@H](NC(=O)[C@H](C)NC(=O)[C@H](Cc1c[nH]c2ccccc12)NC(=O)[C@H](CCC(N)=O)NC(=O)[C@H](CC(N)=O)NC(=O)CNC(=O)[C@H](CC(C)C)NC(=O)[C@H](CCCNC(=N)N)NC(=O)[C@H](CCC(N)=O)NC(=O)/C=C/c1ccc(-c2nccc3c4ccccc4n(C)c23)nc1)C(C)C)C(N)=O [Ir-BN] (X1-QRLGNQWAVGHLL-NH2) | 16.0 ± 9.5% | 5.4 | 2.8 | 4.1 | 3.4 fold |  |  |  |  |  |  | IC50 ([2]; 4 h): 12.6 ± 1.3 µM; IC50 ([3]; 4 h): 28.7 ± 5.9 µM; IC50,light in MRC-5, fold higher than that of Ir-H ([3]; MRC-5, blue light): 4.4 fold; IC50,dark in MRC-5, fold higher than that of Ir-H ([3]; MRC-5, dark): 2.1 fold; IC50 ([4]; 4 h): 8.51 ± 0.8 µM; photoselectivity index (IC50,dark in nonmalignant cells/IC50,light in GRPR overexpressing cancer cells) ([4]; 24 h): 9.5; selectivity for PC-3 cells with respect to MRC-5 fibroblasts ([4]; after blue light): 3.4 fold
Cn1c2ccccc2c2ccnc(-c3ccc(/C=C/C(=O)O)cn3)c21.[Cl-].[Ir+3].[c-]1ccccc1-c1ccccn1.[c-]1ccccc1-c1ccccn1 [Ir-H] | 16.6 ± 9.2% | 10.5 | 6.1 | 3.49 and 3.5 | 2.4 fold | 3.32 ± 1.1 µM | 35 ± 5.4 µM | 6.46 ± 0.801 µM | 39.1 ± 2.4 µM | 9.23 ± 0.63 µM | 32.2 ± 1.9 µM | 
COC(=O)/C=C/c1ccc(-c2nccc3c4ccccc4n(C)c23)nc1.[Cl-].[Ir+3].[c-]1ccccc1-c1ccccn1.[c-]1ccccc1-c1ccccn1 [Ir-Me] | 21.2 ± 4.9% | 14.2 | 35.8 | 16.2 | 3.5 fold | 0.0334 ± 0.0068 µM | 0.471 ± 0.031 µM | 0.0313 ± 0.019 µM | 1.12 ± 0.31 µM | 0.0723 ± 0.031 µM | 1.17 ± 0.29 µM | 
Cn1c2ccccc2c2ccnc(-c3ccc(/C=C/C(=O)O)cn3)c21.[Cl-].[Cl-].[Ru+2].c1ccc(-c2ccccn2)nc1.c1ccc(-c2ccccn2)nc1 [Ru-H] | 28.2 ± 7.8% | 1.2 | 1.2 | 2.0 |  | 56.7 ± 1.6 µM | 67.8 ± 6.7 µM | 43.5 ± 4.5 µM | 53.9 ± 5.4 µM | 34.8 ± 4.3 µM | 70.4 ± 2.7 µM | PI (IC50,dark/IC50,red light) MRC-5 ([3]; MRC-5, red light 655 nm): 0.9; IC50 ([3]; MRC-5, red light 1 h (655 nm, 24.1 J cm^–2), MTT after 48 h, read-out: IC50,redlight MRC-5): 62.3 ± 7.1 µM; PI (IC50,dark/IC50,red light) PC-3 ([4]; PC-3, red light 655 nm): 1.3; IC50 ([4]; PC-3, red light 1 h (655 nm, 24.1 J cm^–2), MTT after 48 h, read-out: IC50,redlight PC-3): 54.3 ± 4.7 µM
